Measured values: patent publication US20190307754A1, “PDE9 INHIBITORS FOR TREATMENT OF PERIPHERAL DISEASES” (IMARA, INC., priority 2016, published 2019)
Several values for one entry are separate records, joined by “and”; a condition that tells them apart may be missing. Identical values can stand only once. Marks after values point to notes of the source that are not given here.

Assays:
[1] = Plasma protein binding, monkey; type: in vitro ADME; settings: read-out: mean plasma fraction bound (converted)
[2] = Plasma protein binding, dog; type: in vitro ADME; settings: read-out: mean plasma fraction bound (converted)
[3] = tested on: K562 erythroleukemic cells; test: cGMP in cultured K562 cells; type: cell-based; settings: 16 hours
Description: Hydroxyurea was included as a comparator as it is currently the only FDA approved treatment for this disease (Charache et al., N Engl J Med., 332(20):1317-22. (1995)). One of the proposed mechanisms of action of HU in SCD is that it may generate NO and modulation of intracellular levels of the NO second messenger, cGMP, may represent an effective and cell-specific approach for amplifying intracellular NO-dependent signaling.
K562 cells were cultured at 37° C. in IMDM® to which the required concentrations of test items or dimethyl sulfoxide (DMSO; negative Control) had been added. Plated cells were maintained at 37° C. for 16 hours at the end of which the amount of cGMP was detected by enzyme immunoassay.

in vivo [4] = settings: rat, 250 mg/kg/day
Description: Animals were observed daily from the start of the dosing and body weights and food intake were recorded at regular intervals. Blood samples were collected from a subset of animals in each group at 6 time points on Day 7 for TK evaluation.

MDR1 (P-gp) = molecular target: T1, MDR1 (P-gp) (Homo sapiens, UniProt P08183); test: Bi-directional permeability across MDCK-MDR1 cell monolayer; type: in vitro ADME; settings: human
T1 construct: expressed in transfected cells; host or cells: MDCK-MDR1 cells

[5] = molecular target: T2, MDR1 (human P-gp) efflux transporter (Homo sapiens, UniProt P08183); test: as above; type: in vitro ADME
T2 construct: expressed in transfected cells; host or cells: MDCK-MDR1 cells

[6] = Pharmacokinetics in mice and rats (statements for both species); type: in vivo; settings: for half-life: read-out: elimination half-life (converted)
Description: The PK evaluation of Compound P3.1 included Absorption, Distribution, Metabolism, and Excretion (ADME) studies, as well as assessment for CYP enzyme inhibition.
(§1) Blood samples were taken at 2 minutes (IV only), then 8, 15, 30 minutes, and 1, 2, 4, 8, and 24 hours after dosing and analyzed for key PK parameters. In the rats, brain samples were taken at 24 hours and analyzed for Compound P3.1. To evaluate the penetration of Compound P3.1 across the blood-brain barrier (BBB), 10 additional rats received IV Compound P3.1 3 mg/kg and plasma and brain concentrations of Compound P3.1 were determined from 2 animals at 15 minutes, 30 minutes and 1, 2, and 4 hours after dosing.

rat = test: in vivo
Description: (§2) In a 14-day repeat-dose toxicity study in rats, Compound P3.1 was orally administered (gavage) at doses of 0 (vehicle), 50, 200, and 400 mg/kg/day.

in vivo [7] = settings: rat
Description: as §2

[8] = tested on: 7 key CYP enzyme isoforms; test: CYP enzyme inhibition in human liver microsomes; settings: up through 100 μM
[9] = Pharmacokinetics of single oral and IV dose in CD1 mice; type: in vivo
Description: as §1

[10] = Bacterial reverse mutation assay; type: cell-based
Text: The genotoxicity evaluation of Compound P3.1 consisted of a bacterial reverse mutation assay, a chromosome aberration study, and a in vivo rat micronucleus study. Compound P3.1 was negative in all 3 assays.

[11] = tested on: K562 erythroleukemic cells; test: HbF in cultured K562 cells; type: cell-based; settings: 3 days
Description: K562 cells were cultured at 37° C. in IMDM® to which the required concentrations of test items or DMSO (negative control) had been added. Plated cells were maintained at 37° C. for 3 days at the end of which the presence of HbF within cells was detected by flow cytometry.

[12] = Metabolic stability (intrinsic clearance) in liver microsomes; type: in vitro ADME, mouse, rat, dog, monkey, and human
CYP3A4 = test: CYP induction, CYP3A4; type: in vitro ADME
[13] = tested on: Berkeley sickle cell transgenic mice; test: HbF positive and sickled red blood cells in Berkeley sickle cell transgenic mice; type: in vivo; settings: 30 mg/kg/day Compound P3.1 or 100 mg/kg/day HU, gavage, 30 days
Description: This study assessed the effects of chronic dosing (30 day) of Compound P3.1 and HU on HbF and cell sickling in a mouse model of sickle cell disease. Berkeley sickle cell transgenic mice (Hbatm1PazHbbtm1Tow Tg(HBA-HBBs)41Paz/J) were divided into groups of 7 to 8 animals and were dosed once daily, by gavage, for 30 days with either vehicle (PEG:water), 30 mg/kg/day of Compound P3.1, or 100 mg/kg/day of HU. This mouse genotype mimics the genetic, hematologic and histopathologic features that are found in humans afflicted with sickle cell anemia, including irreversibly sickled RBCs, anemia and multi-organ pathology. Blood was collected from treated animals on Day 30 for limited routine hematology as well as derivation of the percent of sickled and HbF positive RBCs and total bilirubin. At termination, the spleen was removed and weighed.

[14] = tested on: CD34+ derived red blood cells from SCD subjects; settings: 10 μM Compound P3.1, 5 days
[15] = mouse, blood, CD1 mice, 3 mg/kg IV
[16] = mouse, blood, CD1 mice, 10 mg/kg oral

T1 sequence (P08183 whole entry): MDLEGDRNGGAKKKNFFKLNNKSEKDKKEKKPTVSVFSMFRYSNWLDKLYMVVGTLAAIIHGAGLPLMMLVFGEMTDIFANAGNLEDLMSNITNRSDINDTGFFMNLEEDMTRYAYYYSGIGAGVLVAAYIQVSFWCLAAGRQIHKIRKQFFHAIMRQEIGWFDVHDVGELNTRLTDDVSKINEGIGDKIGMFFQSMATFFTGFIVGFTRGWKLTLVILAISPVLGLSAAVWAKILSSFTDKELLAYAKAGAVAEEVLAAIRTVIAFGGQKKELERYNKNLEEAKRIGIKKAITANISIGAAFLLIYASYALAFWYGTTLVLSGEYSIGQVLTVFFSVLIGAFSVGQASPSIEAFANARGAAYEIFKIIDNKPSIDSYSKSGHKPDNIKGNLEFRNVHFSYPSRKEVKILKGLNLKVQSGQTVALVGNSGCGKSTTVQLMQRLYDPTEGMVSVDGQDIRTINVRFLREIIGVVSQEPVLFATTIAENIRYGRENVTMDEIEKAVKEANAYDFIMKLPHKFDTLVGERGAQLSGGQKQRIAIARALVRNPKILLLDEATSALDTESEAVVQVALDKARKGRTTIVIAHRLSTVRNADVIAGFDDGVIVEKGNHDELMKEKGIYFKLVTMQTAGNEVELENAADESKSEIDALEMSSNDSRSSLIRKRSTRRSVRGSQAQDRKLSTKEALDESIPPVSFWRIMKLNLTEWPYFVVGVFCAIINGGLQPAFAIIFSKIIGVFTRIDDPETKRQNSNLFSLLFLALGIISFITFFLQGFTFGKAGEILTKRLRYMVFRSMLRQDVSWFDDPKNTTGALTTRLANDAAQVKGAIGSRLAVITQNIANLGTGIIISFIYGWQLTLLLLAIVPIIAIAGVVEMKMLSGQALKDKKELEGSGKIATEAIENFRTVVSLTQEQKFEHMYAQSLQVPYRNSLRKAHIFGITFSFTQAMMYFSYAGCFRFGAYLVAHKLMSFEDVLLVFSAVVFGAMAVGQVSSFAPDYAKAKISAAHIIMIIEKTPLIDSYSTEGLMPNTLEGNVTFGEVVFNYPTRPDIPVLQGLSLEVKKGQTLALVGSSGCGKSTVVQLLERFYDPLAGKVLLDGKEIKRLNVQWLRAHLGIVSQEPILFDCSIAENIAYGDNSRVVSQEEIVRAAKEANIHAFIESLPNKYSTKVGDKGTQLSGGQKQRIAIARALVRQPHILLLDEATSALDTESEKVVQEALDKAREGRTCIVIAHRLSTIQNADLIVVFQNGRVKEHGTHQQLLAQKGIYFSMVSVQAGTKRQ
T2 sequence (P08183 whole entry): as above

C[C@@H]1CN(Cc2ncccn2)C[C@H]1c1cn2c(C3CCOCC3)ncc2c(=O)[nH]1 (single isomer, unassigned) [Compound P3.1]
fraction unbound [1]: 0.814 | fraction unbound [2]: 0.771 | cGMP concentration at 1 μM compared with 100 μM HU ([3]; 1 μM): approximately the same value elicited by 100 μM HU | cGMP level ([3]; 10 μM): 12.61 pg/mg | effect on cGMP levels [3]: dose-dependent and statistically significant increases in cGMP levels | AUC0-24 (in vivo [4]; male, Crl:WI(Han), po): 198 µg·h/mL | Cmax (in vivo [4]; male, Crl:WI(Han), po): 18800 ng/mL | AUC(0-t) (in vivo [4]; male, Crl:WI(Han), po, AUC0-24): 226 µg·h/mL | Cmax (in vivo [4]; male, Crl:WI(Han), po, Cmax): 16500 ng/mL | Cmax and systemic exposure of Compound P3.1 in isolation vs in combination with HU (in vivo [4]): similar | efflux ratio (MDR1 (P-gp)): 180 | MDR1 efflux transporter substrate [5]: strong MDR1 (human P-gp) efflux transporter substrate | plasma concentrations by 24 hours ([6]; 10 mg/kg oral, both species): below the lower limit of quantification (LLOQ) | Tmax ([6]; CD1 (mouse), Sprague Dawley (rat), mouse, rat, plasma, 10 mg/kg, oral, mice and rats, read-out: time of maximum concentration (Tmax)): 30 to 60 min | half-life ([6]; CD1 (mouse), Sprague Dawley (rat), mouse, rat, plasma, oral, intravenous, mice and rats): < 180 min | half-life ([6]; CD1 (mouse), Sprague Dawley (rat), mouse, rat, plasma, other: oral and intravenous (both routes), mice and rats): ~180 min | plasma concentration by 24 hours ([6]; IV, both species): below the LLOQ | exposure relative to anticipated efficacious dose (rat): > 10 fold | exposure vs dose (rat): increased proportionally with dose | findings at highest dose (rat; 400 mg/kg/day): reductions in body weight, weight gain, and food intake, and premature deaths | NOAEL at 14 days (in vivo [7]; female): 50 mg/kg/day and 50 mg/kg | NOAEL at 14 days (in vivo [7]; male): 200 mg/kg/day and 200 mg/kg | AUC(0-t) (in vivo [7]; 400 mg/kg/day, plasma exposure (AUC0-24)): > 354 µg·h/mL | direct inhibition of 7 key CYP enzyme isoforms [8]: no potential for direct inhibition | bioavailability ([9]; CD1, mouse, plasma, po, 10 mg/kg, read-out: oral bioavailability Flast): 44.6% | Cl_obs ([9]; CD1 mice, 3 mg/kg IV): 30.7 mL/min/kg | Flast ([9]; CD1 mice, 10 mg/kg oral): 63.4% | Vss obs ([9]; CD1 mice, 10 mg/kg oral): 63.4** L/kg | continuously exposed out to ([9]; mice, 10 mg/kg oral): 4 h | AUC(0-t) [9, 15]: 1.63 µg·h/mL | C0 [9, 15]: 4430 ng/mL | MRT [9, 15]: 26.4 min | half-life [9, 15]: 37.8 min | Vd ([9]; mouse, blood, CD1 mice, 3 mg/kg IV, read-out: Vss obs): 0.89 L/kg | AUC(0-t) [9, 16]: 3.44 µg·h/mL | C0 [9, 16]: 2750 ng/mL | Tmax [9, 16]: 30 min | half-life [9, 16]: 48.6 min | genotoxicity, bacterial reverse mutation assay [10]: negative | HbF positive cells ([11]; 1 μM): 68.7% | HbF positive cells ([11]; 3 μM): 75.6% | HbF positive cells ([11]; 10 μM): 85.6% | metabolic stability ([12]; mouse, rat, dog, monkey, and human liver microsomes): highly stable | intrinsic clearance in liver microsomes ([12]; presence or absence of NADPH): minimal intrinsic clearance | induction of CYP3A4 (CYP3A4): potential for induction | RBC count, hemoglobin concentration or hematocrit [13]: not associated with any apparent alterations | neutrophil levels [13]: reduced neutrophil levels | spleen weight [13]: statistically significant decreases | total bilirubin [13]: statistically significant decreases | total leucocyte count [13]: statistically significant decreases | percentage of HbF positive RBCs ([13]; vs controls): increases in the percentage of HbF positive RBCs | percentage of sickled RBCs ([13]; vs controls): statistically significant decreases in the percentage of sickled RBCs | amount of HbF within cells (mean MFI) [14]: 10,840 | mean MFI of HbF relative to controls [14]: 145% | percentage of HbF positive CD36+ cells (mean) ([14]; 5 SCD subjects): 24.6%
